Values of other authors as cited in US20180104231A1, “BENZALKONIUM CHLORIDE FREE OPHTHALMIC COMPOSITION CONTAINING (+)-(S)-4-[4-CHLOROPHENYL) (2-PYRIDYL) METHOXY] PIPERDINO] BUTYRIC ACID OR PHARMACOLOGICALLY ACCEPTABLE ACID ADDITION SALT, THEREOF” (INTERA HEALTHCARE PLC, priority 2016, published 2018).

Tests used:
[1] = tested on: corneal epithelium and endothelium
[2] = with the lapse of time

Molecule	Effect of BAC exposure on cornea ([1]; BAC 0.0001%, minimum of 15 min exposure)	Effect of BAC on corneal epithelial cells ([1]; clinical concentration (0.005%))	Stability to light in an aqueous solution [2]
benzalkonium chloride [BAC]	physiological changes (edema) and ultra-structural changes to corneal epithelium and endothelium	cell wrinkling to lifting of corneal epithelial cells	–
O=C(O)CCCN1CCC(O[C@@H](c2ccc(Cl)cc2)c2ccccn2)CC1.O=S(=O)(O)c1ccccc1 [bepotastine besilate]	–	–	unstable to light
